Among the data in patent EP2121694B1, “CYCLOPROPYL FUSED INDOLOBENZAZEPINE HCV NS5B INHIBITORS” (Bristol-Myers Squibb Company, priority 2007, dated 2008) are IC50 and EC50 values, retold here.

Read-outs that look alike come from different tables or passages of the source. A value given as a limit tells only on which side of the number the result lay.

One test addresses T1, HCV NS5B (Hepatitis C virus genotype 1b, UniProt Q9WMX2).
T1 construct: The protein was expressed with an 18 amino acid C-terminal truncation to enhance the solubility; made in house; host or cells: E. coli BL21(DE3), pET21a vector
Nature of the test: Modified HCV NS5B RdRp enzyme assay (preincubation protocol). The settings on record: HCV NS5B RdRp genotype 1b. The class given is biochemical. On the procedure:
HCV NS5B RdRp cloning, expression, and purification. The cDNA encoding the NS5B protein of HCV, genotype 1b, was cloned into the pET21a expression vector. The protein was expressed with an 18 amino acid C-terminal truncation to enhance the solubility. The E. coli competent cell line BL21(DE3) was used for expression of the protein. Cultures were grown at 37 °C for ∼ 4 hours until the cultures reached an optical density of 2.0 at 600 nm. The cultures were cooled to 20 °C and induced with 1 mM IPTG. Fresh ampicillin was added to a final concentration of 50 µg/ml and the cells were grown overnight at 20 °C.
Cell pellets (3L) were lysed for purification to yield 15-24 mgs of purified NS5B. The lysis buffer consisted of 20 mM Tris-HCl, pH 7.4, 500 mM NaCl, 0.5% triton X-100, 1 mM DTT, 1mM EDTA, 20% glycerol, 0.5 mg/ml lysozyme, 10 mM MgCl2, 15 ug/ml deoxyribonuclease I, and Complete TM protease inhibitor tablets (Roche). After addition of the lysis buffer, frozen cell pellets were resuspended using a tissue homogenizer. To reduce the viscosity of the sample, aliquots of the lysate were sonicated on ice using a microtip attached to a Branson sonicator. The sonicated lysate was centrifuged at 100,000 x g for 1hr at 4 °C and filtered through a 0.2 µm filter unit (Corning).
The protein was purified using three sequential chromatography steps: Heparin sepharose CL-6B, polyU sepharose 4B, and Hitrap SP sepharose (Pharmacia). The chromatography buffers were identical to the lysis buffer but contained no lysozyme, deoxyribonuclease I, MgCl2 or protease inhibitor and the NaCl concentration of the buffer was adjusted according to the requirements for charging the protein onto the column. Each column was eluted with a NaCl gradient which varied in length from 5-50 column volumes depending on the column type. After the final chromatography step, the resulting purity of the enzyme is >90% based on SDS-PAGE analysis. The enzyme was aliquoted and stored at -80 °C.
Standard HCV NS5B RdRp enzyme assay. HCV RdRp genotype 1b assays were run in a final volume of 60 µl in 96 well plates (Costar 3912). The assay buffer is composed of 20 mM Hepes, pH 7.5, 2.5 mM KCl, 2.5 mM MgCl2, 1 mM DTT, 1.6 U RNAse inhibitor (Promega N2515), 0.1 mg/ml BSA (Promega R3961), and 2 % glycerol. All compounds were serially diluted (3-fold) in DMSO and diluted further in water such that the final concentration of DMSO in the assay was 2%. HCV RdRp genotype 1b enzyme was used at a final concentration of 28 nM. A polyA template was used at 6 nM, and a biotinylated oligo-dT12 primer was used at 180 nM final concentration. Template was obtained commercially (Amersham 27-4110). Biotinylated primer was prepared by Sigma Genosys. 3H-UTP was used at 0.6 µCi (0.29 µM total UTP). Reactions were initiated by the addition of enzyme, incubated at 30 °C for 60 min, and stopped by adding 25 µl of 50 mM EDTA containing SPA beads (4 µg/µl, Amersham RPNQ 0007). Plates were read on a Packard Top Count NXT after >1hr incubation at room temperature.
Modified HCV NS5B RdRp enzyme assay. A modified enzyme assay was performed essentially as described for the standard enzyme assay except for the following: The biotinylated oligo dT12 primer was precaptured on streptavidin-coated SPA beads by mixing primer and beads in assay buffer and incubating at room temperature for one hour. Unbound primer was removed after centrifugation. The primer-bound beads were resuspended in 20 mM Hepes buffer, pH 7.5 and used in the assay at final concentrations of 20 nM primer and 0.67 µg/µl beads. Order of addition in the assay: enzyme (14 nM) was added to diluted compound followed by the addition of a mixture of template (0.2 nM) , 3H-UTP (0.6 µCi, 0.29 µM), and primer-bound beads, to initiate the reaction; concentrations given are final. Reactions were allowed to proceed for 4 hours at 30° C.
IC50 values for compounds were determined using seven different [I]. […]

A further test relates to HCV replicon. In words: HCV FRET screening assay in HCV replicon cells. The following applies: Hepatitis C virus. The test is classed as cell-based. The source says:
FRET Assay Preparation. To perform the HCV FRET screening assay, 96-well cell culture plates were used. The FRET peptide (Anaspec, Inc.) (Taliani et al., Anal. Biochem. 1996, 240, 60-67) contains a fluorescence donor, EDANS, near one end of the peptide and an acceptor, DABCYL, near the other end. The fluorescence of the peptide is quenched by […] resonance energy transfer (RET) between the donor and the acceptor, but as the NS3 protease cleaves the peptide the products are released from RET quenching and the fluorescence of the donor becomes apparent. The assay reagent was made as follows: 5X cell Luciferase cell culture lysis reagent from Promega (#E153A) diluted to 1X with dH2O, NaCl added to 150 mM final, the FRET peptide diluted to 20 uM final from a 2 mM stock.
To prepare plates, HCV replicon cells, with or without a Renilla luciferase reporter gene, were trypsinized and placed into each well of a 96-well plate with titrated test compounds added in columns 3 through 12; columns 1 and 2 contained a control compound (HCV protease inhibitor), and the bottom row contained cells without compound. The plates were then placed in a CO2 incubator at 37 °C.
Assays. Subsequent to addition of the test compounds described above (FRET Assay Preparation), at various times the plate was removed and Alamar blue solution (Trek Diagnostics, #00-100) was added per well as a measure of cellular toxicity. After reading in a Cytoflour 4000 instrument (PE Biosystems), plates were rinsed with PBS and then used for FRET assay by the addition of 30 ul of the FRET peptide assay reagent described above (FRET Assay Preparation) per well. The plate was then placed into the Cytoflour 4000 instrument which had been set to 340 excite/490 emission, automatic mode for 20 cycles and the plate read in a kinetic mode. Typically, the signal to noise using an endpoint analysis after the reads was at least three-fold. Alternatively, after Alamar blue reading, plates were rinsed with PBS, 50 ul of DMEM (high glucose) without phenol red was added and plates were then used for luciferase assay using the Promega Dual-Glo Luciferase Assay System.
Compound analysis was determined by quantification of the relative HCV replicon inhibition and the relative cytotoxicity values. To calculate cytoxicity values, the average Alamar Blue fluorescence signals from the control wells were set as 100% non-toxic. The individual signals in each of the compound test wells were then divided by the average control signal and multiplied by 100% to determine […]. To calculate the HCV replicon inhibition values, an average background value was obtained from the two wells containing the highest amount of HCV protease inhibitor at the end of the assay period. These numbers were similar to those obtained from naïve Huh-7 cells.
The background numbers were then subtracted from the average signal obtained from the control wells and this number was used as 100% activity. The individual signals in each of the compound test wells were then divided by the averaged control values after background subtraction and multiplied by 100% to determine percent activity. EC50 values for a protease inhibitor titration were calculated as the concentration which caused a 50% reduction in FRET or luciferase activity. The two numbers generated for the compound plate, percent cytoxicity and percent activity were used to determine compounds of interest for further analysis.
On the technique in general: In antiviral work, replicon cells carry a viral genome segment that copies itself.

The mark [1] stands for this setting: HCV replicon cells, FRET assay, read-out: EC50.

T1 sequence (Q9WMX2 2420-2992): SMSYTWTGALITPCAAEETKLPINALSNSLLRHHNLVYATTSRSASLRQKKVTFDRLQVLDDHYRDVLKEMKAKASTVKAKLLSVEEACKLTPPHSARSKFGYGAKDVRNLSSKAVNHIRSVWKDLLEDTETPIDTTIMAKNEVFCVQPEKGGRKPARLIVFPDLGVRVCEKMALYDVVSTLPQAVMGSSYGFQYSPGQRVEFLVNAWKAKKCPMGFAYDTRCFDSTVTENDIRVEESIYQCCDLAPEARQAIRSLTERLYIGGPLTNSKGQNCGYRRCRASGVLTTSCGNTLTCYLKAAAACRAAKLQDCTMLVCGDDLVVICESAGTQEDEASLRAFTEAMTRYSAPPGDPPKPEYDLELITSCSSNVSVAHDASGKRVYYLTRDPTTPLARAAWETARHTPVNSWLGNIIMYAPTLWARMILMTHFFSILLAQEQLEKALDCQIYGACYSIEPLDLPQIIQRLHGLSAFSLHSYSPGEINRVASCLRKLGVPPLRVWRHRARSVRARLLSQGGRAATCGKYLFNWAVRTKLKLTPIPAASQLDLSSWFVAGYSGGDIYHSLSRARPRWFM

The IC50 is the concentration needed to halve the response being measured. Lower therefore signals greater potency in that assay. By EC50 is commonly meant the concentration that produces a half-maximal response. Compound `COC(=O)C12CC1c1cc(O)ccc1-c1c(C3CCCCC3)c3ccc(C(=O)OC(C)(C)C)cc3n1C2` (centres unmarked) yielded an IC50 at HCV NS5B of 1000 to 10000 nM. In addition, the EC50 with HCV replicon (setting [1]) is over 1000 nM.
For `COc1ccc2c(c1)C1CC1(C(=O)N(C)CCN(C)C)Cn1c-2c(C2CCCCC2)c2ccc(C(=O)NS(=O)(=O)N(C)C)cc21` (centres unmarked), in that order: 97 to 1000 nM and 97 to 1000 nM.
For `CCN(CC)CCN(C)C(=O)C12CC1c1cc(OC)ccc1-c1c(C3CCCCC3)c3ccc(C(=O)NS(=O)(=O)N(C)C)cc3n1C2` (centres unmarked), in that order: 97 to 1000 nM and 97 to 1000 nM.
On to `COc1ccc2c(c1)C1CC1(C(=O)N1CC[C@@H](N(C)C)C1)Cn1c-2c(C2CCCCC2)c2ccc(C(=O)NS(=O)(=O)N(C)C)cc21` (some centres unmarked), for which the IC50 at HCV NS5B was in the range of 97 to 1000 nM. The EC50 in the test on HCV replicon (setting [1]) is 97 to 1000 nM.
Turning to `COCC1CN(C(=O)C23CC2c2cc(OC)ccc2-c2c(C4CCCCC4)c4ccc(C(=O)NS(=O)(=O)N(C)C)cc4n2C3)CCO1` (centres unmarked), the IC50 against HCV NS5B was in the range of 97 to 1000 nM. Further, the EC50 in the test with HCV replicon was in the range of 97 to 1000 nM.
With `COc1cccc2c1C1CC1(C(=O)N1C[C@@H](C)N[C@@H](C)C1)Cn1c-2c(C2CCCCC2)c2ccc(C(=O)NS(=O)(=O)N(C)C)cc21` (some centres unmarked), the IC50 against HCV NS5B was 97 to 1000 nM. For the same compound, the EC50 in the test with HCV replicon (setting [1]) lay in the range of 97 to 1000 nM.
Turning to `COc1ccc2c(c1)C1CC1(C(=O)N1CCCN(C)CC1)Cn1c-2c(C2CCCCC2)c2ccc(C(=O)NS(=O)(=O)C3CC3)cc21` (centres unmarked), the IC50 at HCV NS5B is 97 to 1000 nM. In addition, in the test with HCV replicon (setting [1]), the EC50 was in the range of 97 to 1000 nM.
`COc1cccc2c1C1CC1(C(=O)N1C[C@@H](C)O[C@@H](C)C1)Cn1c-2c(C2CCCCC2)c2ccc(C(=O)NS(=O)(=O)N(C)C)cc21` (some centres unmarked) returned an IC50 at HCV NS5B of 97 to 1000 nM. The EC50 with HCV replicon (setting [1]) is 97 to 1000 nM.
The compound `COc1ccc2c(c1)C1CC1(C(=O)N1C[C@@H](C)O[C@@H](C)C1)Cn1c-2c(C2CCCCC2)c2ccc(C(=O)NS(=O)(=O)C3CC3)cc21` (some centres unmarked) displayed an IC50 against HCV NS5B of 97 to 1000 nM. Besides, the EC50 in the test with HCV replicon (setting [1]) lay within 97 to 1000 nM.
Regarding `COc1ccc2c(c1)C1CC1(C(=O)N1CC(C)OC(C)C1)Cn1c-2c(C2CCCCC2)c2ccc(C(=O)NS(C)(=O)=O)cc21` (centres unmarked), the IC50 at HCV NS5B was 97 to 1000 nM. For the same compound, the EC50 in the test with HCV replicon was 97 to 1000 nM.
`COc1ccc2c(c1)C1CC1(C(=O)N1CCN(c3ccccn3)CC1)Cn1c-2c(C2CCCCC2)c2ccc(C(=O)NS(=O)(=O)C3CC3)cc21` (centres unmarked) had an IC50 against HCV NS5B of 97 to 1000 nM. Also, the EC50 with HCV replicon (setting [1]) was in the range of 97 to 1000 nM.
`COc1ccc2c(c1)C1CC1(C(=O)N1CC[C@H](N(C)C)C1)Cn1c-2c(C2CCCCC2)c2ccc(C(=O)NS(=O)(=O)C3CC3)cc21` (some centres unmarked) displayed an IC50 on HCV NS5B of 97 to 1000 nM. In addition, the EC50 with HCV replicon (setting [1]) lay in the range of 97 to 1000 nM.
With `COc1ccc2c(c1)C1CC1(C(=O)N1CCC(C)(O)CC1)Cn1c-2c(C2CCCCC2)c2ccc(C(=O)NS(N)(=O)=O)cc21` (centres unmarked), at HCV NS5B, the IC50 lay within 97 to 1000 nM. In the test on HCV replicon (setting [1]), the EC50 was in the range of 97 to 1000 nM.
As for `COc1ccc2c(c1)C1CC1(C(=O)N1CCCN(C)CC1)Cn1c-2c(C2CCCCC2)c2ccc(C(=O)NS(N)(=O)=O)cc21` (centres unmarked), the IC50 at HCV NS5B fell in the range of 97 to 1000 nM. The EC50 in the test with HCV replicon (setting [1]) was in the range of 97 to 1000 nM.
As for `COc1ccc2c(c1)C1CC1(C(=O)N1CCCN(C)CC1)Cn1c-2c(C2CCCCC2)c2ccc(C(=O)NS(=O)(=O)C(C)C)cc21` (centres unmarked), the IC50 at HCV NS5B lay within 97 to 1000 nM. For the same compound, in the test with HCV replicon (setting [1]), the EC50 is over 120 nM.
Regarding `COc1ccc2c(c1)C1CC1(C(=O)N1CCC(C)(O)CC1)Cn1c-2c(C2CCCCC2)c2ccc(C(=O)NS(C)(=O)=O)cc21` (centres unmarked), the IC50 against HCV NS5B is 97 to 1000 nM. For the same compound, the EC50 with HCV replicon (setting [1]) was 97 to 1000 nM.
With `COc1ccc2c(c1)C1CC1(C(=O)N1CCC(C)(O)CC1)Cn1c-2c(C2CCCCC2)c2ccc(C(=O)NS(=O)(=O)N3CCC3)cc21` (centres unmarked), on HCV NS5B, the IC50 lay within 97 to 1000 nM. Also, the EC50 with HCV replicon (setting [1]) fell in the range of 97 to 1000 nM.
`COc1ccc2c(c1)C1CC1(C(=O)N1CCCCC1CN(C)C)Cn1c-2c(C2CCCCC2)c2ccc(C(=O)NS(=O)(=O)N(C)C)cc21` (centres unmarked) [drawing 49] showed an IC50 against HCV NS5B of 97 to 1000 nM. Further, the EC50 with HCV replicon (setting [1]) lay within 97 to 1000 nM.
`COc1ccc2c(c1)C1CC1(C(=O)N1CCCN(C)CC1)Cn1c-2c(C2CCCCC2)c2ccc(C(=O)NS(=O)(=O)N(C)C)cc21` (centres unmarked) [drawing 58]: at HCV NS5B, the IC50 lay within 97 to 1000 nM. The EC50 in the test on HCV replicon (setting [1]) is 97 to 1000 nM.
